According to US20070218456A1, “CELLULAR ASSAYS FOR SIGNALING RECEPTORS” (INVITROGEN CORPORATION, priority 2006, published 2007):
Values after ≈ are worked out from the molar mass of the structure shown.

How the values were obtained:
[1] = system: adenylyl cyclase; experiment: FACS forskolin response of T-REx-GPR23-CRE-bla-CHO-K1 pools; type: cell-based, Chinese hamster
Source text: (§1) The transfected and antibiotic selected T-REx™-CRE-bla-CHO-K1 and T-REx™-GPR23-CRE-bla-CHO-K1 clones were sorted for their responsiveness to forskolin. Forskolin activates adenylyl cyclase and results in increased intracellular cAMP concentrations which in turn lead to increased production of beta-lactamase from the CRE response element. Forskolin response of the T-REx™-CRE-bla-CHO-K1 and T-REx™-GPR23-CRE-bla-CHO-K1 pools were determine using FACS. […] In addition, there was an increase in the constitutively active cells in the human GPR23 containing cells as compared to the parental as indicated by the un-stimulated blue levels. The responsive clones were collected at one cell per well in 96 well tissue culture plates then expanded and tested for there responsiveness to LPA.

[2] = system: adenylyl cyclase; experiment: FACS forskolin response of T-REx-CRE-bla-CHO-K1 pool; type: cell-based, Chinese hamster; conditions: T-REx-CRE-bla-CHO-K1 selected pool
Source text: as §1

[3] = system: T-REx™-G2A-NFAT-bla Freestyle™293F cells; experiment: T-REx G2A NFAT-bla Freestyle 293F beta-lactamase reporter assay (inducer dose response)
Protocol: (§2) In order to control the levels of G2A expression, G2A was placed under the control of an inducible promoter using Invitrogen's T-REx™ system. To again assess feasibility, pcDNA 5 G2A/TO was transiently transfected into CRE-bla Freestyle™ and NFAT-bla Freestyle™ cell lines stably expressing the T-REx™ Tet repressor plasmid (pcDNA6/TR; e.g., catalog# V1025-20, Invitrogen, Carlsbad, Calif.). The transfected cells were then treated with 10 ug/mL, 1 ug/mL, or 100 ng/mL tetracycline for 24 h to induce G2A expression. […] Stable pools of cells were created in both the TR CRE-bla and TR NFAT-bla Freestyle™293F backgrounds.
(§3) Stimulation Kinetics—Selected pools of both CRE-bla and NFAT-bla T-REx™ G2A Freestyle™ cells were stimulated with tetracycline for 3, 4, 5, or 24 h and loaded for 2 h with 1 μM LiveBLAzer™-FRET B/G substrate.
To improve the balance between tetracycline-induced signaling and cell death by testing shorter induction times, lower tetracycline concentrations and altered culture conditions were utilized to promote cell health. A 16 h tetracycline stimulation time was attempted on the pools from the first sort. Cells were plated at 10,000 cells/well 24 hours prior to assay in DMEM+10% dFBS and incubated at 37° C./5% CO2 until time of assay. The cells were stimulated for 16 hours (e.g., overnight) with a dilution series of the tetracycline. Following stimulation, the cells were loaded for 2 hours at room temperature in the dark with LiveBLAzer™-FRET B/G loading solution containing 1 μM substrate. This assay was done in Poly-D-Lysine coated plates.
Since G2A has no known agonists, doxycycline and tetracycline were compared as inducers of the assay. An antibiotic selected pool of cells were plated at 10,000 cells/well 24 hours prior to assay in DMEM+10% dFBS and incubated at 37° C./5% CO2 until time of assay. The cells were stimulated with a dilution series of each compound for 16 hours at 37° C./5% CO2 and loaded for 2 hours at room temperature in the dark with LiveBLAzer™-FRET B/G loading solution containing 1 μM substrate.
Cell Density/well—The influence of cell-plating density on assay performance was tested to find the density giving the best response and Z′ while maintaining the expected pharmacology. Cells were plated 24 hours prior to the assay at the densities indicated in FIG. 14 in DMEM+10% dFBS and incubated at 37° C./5% CO2 until the time of assay. The cells were stimulated for 16 hours at 37° C./5% CO2 with a dilution series of the doxycycline. After incubation, the cells were loaded for 2 hours at room temperature in the dark with LiveBLAzer™-FRET B/G loading solution containing 1 μM substrate.
DMSO Tolerance—Tests were performed related to assay performance as a function of DMSO concentration to determine the robustness of the assay to the range of DMSO challenge routinely encountered during high-throughput screening. Dose response curves were performed in the presence of 0%, 0.25%, 0.5%, or 1% DMSO. Cells were plated at 10,000 cells/well 24 hours prior to assay in DMEM+10% dFBS and incubated at 37° C./5% CO2 until time of assay. After incubation, DMSO was added to the wells to final concentrations of 0%, 0.25%, 0.5% and 1% DMSO. The cells were stimulated for 16 hours with a dilution series of the doxycycline. Following stimulation, the cells were loaded for 2 hours at room temperature in the dark with LiveBLAzer™-FRET B/G loading solution containing 1 μM substrate.
The substrate loading times were varied to find the time for an optimal assay performance. Cells were plated at 10,000 cells/well 24 hours prior to assay in DMEM+10% dFBS and incubated at 37° C./5% CO2 until time of assay. After incubation, DMSO was added to the wells to final concentration of 0.5%.

[4] = system: T-REx™ G2A CRE-bla Freestyle™ 293F cells; conditions: selected pool; 24 h tetracycline stimulation
Protocol: as §2, §3

[5] = system: T-REx™-GPR23-CRE-bla-CHO-K1 clone H6-E2; experiment: T-REx-GPR23-CRE-bla-CHO-K1 clone H6-E2 beta-lactamase reporter assay (induction); type: cell-based, Chinese hamster; conditions: Clone H6-E2; 1 μg/ml tetracycline, 16 hrs
Protocol: Six clones selected for further testing were expanded and retested for their inducible GPR23 specific activity. The clones were plated at 25,000 cells per well in a 96 well black walled clear bottom tissue culture assay plate. The plates were than placed at 37° C. 5% CO2 for 24 hrs to allow the cells to attach to the assay plate. The complete media was then removed from the plate and replaced with assay media (DMEM+0.1% BSA) containing 100 ng/ml pertussis toxin with or without 1 μg/ml tetracycline. The plates were placed at 37° C. 5% CO2 for 16 hrs to allow the induced expression of the GPR23 receptor. The cells were then loaded with LiveBLAzer™-FRET B/G substrate (2 μM) containing solution D for 2 hrs. To determine the optimal cell density for this assay the cells were plated at 2,500, 5,000, 10,000, and 20,000 cells per well in a 384 well black walled clear bottom tissue culture assay plate in complete media (DMEM+10% FBS). The plates were than placed at 37° C. 5% CO2 for 24 hrs to allow the cells to attach to the assay plate. The complete media was then removed from the plate and replaced with assay media (DMEM+0.1% BSA) containing 100 ng/ml pertussis toxin and a four fold dilution series of doxycycline starting at 1 μg/ml. The plates were placed at 37° C./5% CO2 for 16 hrs to allow the induced expression of the GPR23 receptor. The cells were then loaded with LiveBLAzer™-FRET B/G substrate (2 μM) containing solution D for 2 hrs. The cells were plated at 20,000 cells per well in a 384 well black walled clear bottom tissue culture assay plate in complete media (DMEM+10% FBS). The plates were then placed at 37° C. 5% CO2 for 6 hrs to allow the cells to attach to the assay plate. The complete media was then removed from the plate and replaced with assay media (DMEM+0.1% BSA) containing 100 ng/ml pertussis toxin, 0%, 0.25%, 0.5%, or 1.0% DMSO, and a three fold dilution series of doxycycline starting at 1 μg/ml. The plates were placed at 37° C./5% CO2 for 16 hrs to allow the induced expression of the GPR23 receptor. The cells were then loaded with LiveBLAzer™-FRET B/G substrate (2 μM) containing solution D for 2 hrs. The cells were plated at 20,000 cells per well in a 384 well black walled clear bottom tissue culture assay plate in complete media (DMEM+10% FBS). The plates were than placed at 37° C. 5% CO2 for 6 hrs to allow the cells to attach to the assay plate. The complete media was then removed from the plate and replaced with assay media (DMEM+0.1% BSA) containing 100 ng/ml pertussis toxin, 0.5% DMSO, and a three fold dilution series of doxycycline starting at 1 μg/ml. The plates were placed at 37° C. 5% CO2 for 16, 20 or 24 hrs to allow the induced expression of the GPR23 receptor. The cells were then loaded with LiveBLAzer™-FRET B/G substrate (2 μM) containing solution D for 2 hrs. Dose response of T-REx-GPR23-CRE-bla CHO-K1 cells to Doxycycline. T-REx-GPR23-CRE-bla CHO-K1 cells were plated in Growth Media (+) and allowed to attach to the tissue culture plate for 6 hrs. They were then induced for GPR23 expression overnight with doxycycline for 16 hrs in Assay Media. Cells were then loaded with LiveBLAzer™-FRET B/G Substrate (CCF4-AM) for 2 hours. Fluorescence emission values at 460 nm and 530 nm were obtained using a standard florescence plate reader and the Blue/Green Emission Ratios were plotted against the indicated concentrations of doxycycline (FIG. 40).

| Compound | increase in the "Blue" gate, stimulated verses un-stimulated ([1]; T-REx-GPR23-CRE-bla-CHO-K1 E1) [%] | increase in the "Blue" gate, stimulated verses un-stimulated ([1]; T-REx-GPR23-CRE-bla-CHO-K1 H6) [%] | increase in the percentage of cells in the "Blue" (responding) gate, stimulated verses un-stimulated [2] [%] | EC50 ([3]; Homo sapiens, FreeStyle 293-F, antibiotic selected pool, 10,000 cells/well, 16 h stimulation, 2 h loading) [µg/mL] | RR (Max) ([3]; antibiotic selected pool, 10,000 cells/well, 16 h stimulation) | cell death ([3]; selected pool, 24 h tetracycline stimulation) | cell death [4] | inducible response (induced versus uninduced) [5] |
| --- | --- | --- | --- | --- | --- | --- | --- | --- |
| C=C[C@@]1(C)CC(=O)[C@]2(O)[C@@]3(C)[C@@H](O)CCC(C)(C)[C@@H]3[C@H](O)[C@H](OC(C)=O)[C@@]2(C)O1 [Forskolin] | ~20 | ~21.1 | ~10.7 |  |  |  |  |  |
| CN(C)[C@@H]1C(O)=C(C(N)=O)C(=O)[C@@]2(O)C(O)=C3C(=O)c4c(O)cccc4[C@@](C)(O)[C@H]3C[C@@H]12 [Tetracycline] |  |  |  | 0.046 (≈ 0.104 µM) | 3.1 | substantial cell death | substantial cell death | about 9.2 fold |
